Measured values from article PMC10889512, “Pyrimidine Schiff Bases: Synthesis, Structural Characterization and Recent Studies on Biological Activities” (International Journal of Molecular Sciences, 2024).

Tested on: S. aureus 43300
Experiment: Antimicrobial activity assay, microdilution
Type: cell-based, Staphylococcus aureus
Conditions: concentration range from 0.5 µg/mL to 256 µg/mL
Experimental: In vitro antimicrobial and antifungal activity was screened using microdilution and modified Richard’s medium. The assay was performed for compounds 4a, 4b, 4c, and 4d with seven reference microbial strains from ATTC (E. coli 25922, S. aureus 43300, K. pneumoniae 700603, A. baumannii 19606, P. aeruginosa 27853, E. faecalis 29212, and C. albicans 10231).
Seven reference strains from the ATCC collection (Escherichia coli 25922, Staphylococcus aureus 43300, Klebsiella pneumoniae 13883, Acinetobacter baumannii 19606, Pseudomonas aeruginosa 27853, Enterococcus faecalis 29212, and Candida albicans 10231) were used. The assay was performed according to a modified version of Richard et al.’s protocol and ISO standards 20776-1:2019 and 16256:2021 [78, 79]. Microdilution with spectrophotometric measurement was used to calculate MIC50 (minimal inhibitory concentration which decreased the microorganisms’ viability to 50%) values. Briefly, compounds were prepared 100× concentrated in DMSO, and during the whole experiment, they were diluted to 1× with TSB. Serial dilutions of tested compounds were made directly on plates at a concentration range of 0.5 to 256 µg/mL. Microorganisms were incubated for 24 h at 37 °C (bacteria) or 25 °C (yeast) on Petri dishes with TSA. The bacteria/yeast suspensions were prepared at a density 5 × 10^5 CFU/mL (for bacteria) or 0.5–2.5 × 10^5 CFU/mL (for yeast) with TSB. Also, appropriate controls were contained in the experiment: the positive control consisted of a specific strain in TSB, and the negative control was TSB alone. To ensure that used strains were not modified and were still responding to antibacterial/antifungal compounds established by EUCAST, additional tests were conducted with levofloxacin, gentamicin, and amphotericin B. Microplates were incubated on a shaker for 24 h at 37 ± 1 °C or 25 ± 1 °C for the bacteria and yeast strains, respectively. After the incubation, spectrophotometric measurement was performed at 580 nm. MIC50 was calculated by comparing the results obtained for experimental sets with positive controls. Next, 50 µL aliquots of 1% (m/v) TTC solution were added to each well. The plates were incubated on the shaker for 24 h at 37/25 °C. In living microbial cells, colourless TTC is converted into red formazan crystals, which allows for visual observation and MBC/MFC (minimal bactericidal/fungicidal concentration) value assessment.

SMILES: Cc1nc(-c2ccccc2)nc(Nc2ccc(F)cc2)c1C=Nc1cccc(Cl)c1 [compound 4b, 5-{[(3-chlorophenyl)imino]methyl}-N-(4-fluorophenyl)-6-methyl-2-phenylpyrimidin-4-amine]
- MIC and MBC/MFC activity: Neither MIC nor MBC/MFC activity was observed
